The source of these data is patent US11346839B2, “Method for determining the interaction between a ligand and a receptor” (INSINGULO AB, priority 2018, dated 2022).

This test addresses human-thrombin (Homo sapiens, UniProt P00734). To be noted: Example 2, thrombin 1 pM.

Like-named read-outs stand apart in the source and are kept apart here.

Method: To yield liposomes with a diameter of ˜100 nm first the required lipids were solved in chloroform and mixed. In total 5 mg 2-Oleoyl-1-palmitoyl-sn-glycero-3-phosphocholine, 0.01 mg, 1,2-dioleoyl-sn-glycero-3-phosphoethanolamine-N-dibenzocyclooctyl and 0.005 mg 1,2-dipalmitoyl-sn-glycero-3-phosphoethanolamine-N-(lissamine rhodamine B sulfonyl) were mixed together. The lipid mixture was vacuum dried overnight. The dried lipids were hydrated in 1 ml HBS (150 mM NaCl, 20 mM/L HEPES at pH7.2) under gentle agitation. The lipid suspension was extruded through a PC-membrane with 100 nm pore size eleven times. Concentration of the liposomes was determined by light absorption at 544 nm and the concentration of the liposome solution was adjusted to 2.5 mg/ml. This equals a liposome concentration of approximately 30 nM.
To immobilize thrombin at the liposomes via click chemistry an azide-group was introduced to thrombin via NHS coupling. Therefore, 100 μL of human-thrombin at 2 mg/ml was mixed with 200 μL high salt PBS-buffer (10 mM Na2HPO4, 1.8 mM KH2PO4, 400 mM NaCl+33.5% Glycerol (v/v) at pH 7.4 and 13 μL NHS-PEG4-Azide at 10 mM. The mixture was incubated for 30 minutes at RT. The reaction was stopped by the addition of 500 μL high salt PBS-buffer (10 mM Na2HPO4, 1.8 mM KH2PO4, 400 mM NaCl+33.5% Glycerol (v/v) at pH 6.6.
1.5 μL of the thrombin-azide were mixed with 48.5 μL icecold CHES-buffer (20 mM CHES, 150 mM NaCl) at pH 8.5 and subsequently 50 μL of the liposome solution is added. This mix was stored for at least 30 minutes on ice. 10 μL of the reaction mix was diluted with 990 μL icecold CHES-buffer (20 mM CHES, 150 mM NaCl) at pH 8.5.
After curing, into each well of the microplate 10 μL of a solution containing 1 mg/ml PLL-g-PEG and 1 mg/ml PLL-g-PEG-biotin are added. The plate was incubated for at least 1 h under gentle orbital agitation. After the incubation each well was washed 10-times with HBS-buffer. The dilution ratio of every washing step was at least 1:10. […]
The single molecule microscope was based on a Nikon Ti-E base. […] Images are recorded via a [sequence] […]

Turning to `N=C(N)c1ccc(CNC(=O)[C@@H]2CCN2C(=O)[C@H](NCC(=O)O)C2CCCCC2)cc1` [melagatran], the kobs (one hundred wells summed, melagatran 7.4 nM (FIG. 6)) came to 0.22 s⁻¹; the kobs result (single well, melagatran 7.4 nM (FIG. 4)) is recorded as “could not be reliably fitted”; the kobs (two wells summed, melagatran 7.4 nM (FIG. 5)) was 0.43 s⁻¹.
